Values of other authors, collected in patent publication EP2136625B1, “USE OF A MEANS FOR THE SI[…] WEEDS, ALGAE, PHYTOPATHOGENIC BACTERIA, FUNGI, VIRUSES AND VIROIDS” (priority 2007, dated 2008).

Conditions: Methode EPA-FIFRA, Sonnenbarsch, 46 d

For `CCCCCCCCCC[N+](C)(C)CCCCCCCCCC.[Cl-]` [DDAC, Didecyldimethylammoniumchlorid], the BCF is given as 81.
